The values that follow come from ChEMBL document CHEMBL4184100, “Discovery of 2-arylquinazoline derivatives as a new class of ASK1 inhibitors” (Bioorg Med Chem Lett, 2018).

Converted amounts (≈) assume the structure as drawn.

Data set [1] addresses T1, Mitogen-activated protein kinase kinase kinase 5 (Homo sapiens, UniProt Q99683).
T1 sequence (Q99683 whole entry): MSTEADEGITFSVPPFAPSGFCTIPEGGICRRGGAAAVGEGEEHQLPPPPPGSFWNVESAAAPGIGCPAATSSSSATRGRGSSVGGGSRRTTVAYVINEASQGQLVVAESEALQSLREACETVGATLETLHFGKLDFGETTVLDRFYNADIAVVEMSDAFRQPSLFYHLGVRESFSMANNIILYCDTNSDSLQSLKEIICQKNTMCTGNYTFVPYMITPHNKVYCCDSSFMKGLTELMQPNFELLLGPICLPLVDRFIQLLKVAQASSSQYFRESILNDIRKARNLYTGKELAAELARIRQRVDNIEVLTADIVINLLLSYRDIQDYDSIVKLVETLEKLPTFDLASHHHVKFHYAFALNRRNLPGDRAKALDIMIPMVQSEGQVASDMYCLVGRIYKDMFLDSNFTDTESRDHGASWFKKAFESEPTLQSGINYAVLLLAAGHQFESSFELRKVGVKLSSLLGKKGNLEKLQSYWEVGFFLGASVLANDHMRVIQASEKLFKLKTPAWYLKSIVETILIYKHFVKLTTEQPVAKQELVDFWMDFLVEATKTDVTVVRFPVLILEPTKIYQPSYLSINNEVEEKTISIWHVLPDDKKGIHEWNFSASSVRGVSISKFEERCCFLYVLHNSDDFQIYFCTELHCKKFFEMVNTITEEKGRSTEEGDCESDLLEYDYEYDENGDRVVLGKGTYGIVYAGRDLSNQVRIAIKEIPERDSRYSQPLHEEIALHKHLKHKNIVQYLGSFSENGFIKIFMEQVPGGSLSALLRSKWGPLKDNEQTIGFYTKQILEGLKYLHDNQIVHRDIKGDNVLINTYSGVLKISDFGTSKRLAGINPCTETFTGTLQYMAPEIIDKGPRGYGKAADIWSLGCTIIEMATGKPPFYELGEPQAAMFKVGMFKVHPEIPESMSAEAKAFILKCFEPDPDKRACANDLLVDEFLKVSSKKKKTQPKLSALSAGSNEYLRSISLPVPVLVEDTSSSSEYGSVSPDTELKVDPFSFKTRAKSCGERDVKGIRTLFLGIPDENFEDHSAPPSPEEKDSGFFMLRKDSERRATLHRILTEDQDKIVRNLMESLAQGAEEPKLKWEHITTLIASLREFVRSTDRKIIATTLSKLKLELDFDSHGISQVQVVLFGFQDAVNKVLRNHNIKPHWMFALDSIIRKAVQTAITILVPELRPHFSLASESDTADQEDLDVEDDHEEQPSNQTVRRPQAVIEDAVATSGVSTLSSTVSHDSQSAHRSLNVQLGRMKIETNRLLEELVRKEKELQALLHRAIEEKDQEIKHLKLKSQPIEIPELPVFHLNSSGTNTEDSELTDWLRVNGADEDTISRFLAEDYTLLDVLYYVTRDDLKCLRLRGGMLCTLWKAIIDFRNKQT
Kind of data set: Inhibition of stress-activated full length recombinant human N-terminal GST-tagged ASK1 expressed in baculovirus expression system using MKK6 as substrate pretreated for 10 mins followed by substrate addition by Alphascreen assay.

Data set [2] is described as follows: Stability in human liver microsomes. In kind it is ADME, microsome. Conditions: read-out: Stability. In general terms: Microsomes from liver hold many membrane-bound enzymes, among them those of drug oxidation.
The target of the next data set is CYP2C9 (Homo sapiens, UniProt P11712). Description: Inhibition of CYP2C9 (unknown origin) at 10 uM relative to control. In kind it is ADME.
CYP2C9, sequence (P11712 whole entry): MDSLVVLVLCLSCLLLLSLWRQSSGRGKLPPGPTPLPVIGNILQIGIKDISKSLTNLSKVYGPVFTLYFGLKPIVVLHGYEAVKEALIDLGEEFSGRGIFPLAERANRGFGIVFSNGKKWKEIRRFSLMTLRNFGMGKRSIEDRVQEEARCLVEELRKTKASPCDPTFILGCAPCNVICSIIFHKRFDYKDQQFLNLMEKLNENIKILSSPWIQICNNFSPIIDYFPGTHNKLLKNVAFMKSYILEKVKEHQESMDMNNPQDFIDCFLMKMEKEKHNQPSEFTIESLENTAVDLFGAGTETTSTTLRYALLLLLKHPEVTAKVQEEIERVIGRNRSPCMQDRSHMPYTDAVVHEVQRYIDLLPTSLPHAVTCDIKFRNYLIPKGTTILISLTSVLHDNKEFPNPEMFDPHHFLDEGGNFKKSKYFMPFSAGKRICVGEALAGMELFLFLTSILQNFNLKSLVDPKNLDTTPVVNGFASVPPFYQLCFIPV
For another data set, the target named is CYP2D6 (Homo sapiens, UniProt P10635). Description: Inhibition of CYP2D6 (unknown origin) at 10 uM relative to control. In kind it is ADME.
CYP2D6, sequence (P10635 whole entry): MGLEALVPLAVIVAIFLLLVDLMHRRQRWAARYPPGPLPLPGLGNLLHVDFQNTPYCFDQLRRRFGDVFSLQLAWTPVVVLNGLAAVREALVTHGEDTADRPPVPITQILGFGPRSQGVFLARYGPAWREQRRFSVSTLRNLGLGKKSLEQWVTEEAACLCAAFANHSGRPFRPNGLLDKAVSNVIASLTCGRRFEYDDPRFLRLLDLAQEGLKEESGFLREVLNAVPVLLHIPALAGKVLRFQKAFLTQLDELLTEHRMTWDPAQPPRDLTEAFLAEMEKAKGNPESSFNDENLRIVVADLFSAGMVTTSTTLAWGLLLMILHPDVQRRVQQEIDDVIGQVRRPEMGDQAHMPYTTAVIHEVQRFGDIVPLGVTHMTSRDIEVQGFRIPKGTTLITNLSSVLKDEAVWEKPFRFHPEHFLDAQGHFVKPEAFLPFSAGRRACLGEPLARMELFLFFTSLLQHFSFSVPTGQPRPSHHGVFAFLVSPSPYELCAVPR
Data set [3] is described as follows: Stability in rat liver microsomes. The settings on record: read-out: Stability. In kind it is ADME, microsome.
The target in the next data set is T2, CYP1A2 (Homo sapiens, UniProt P05177).
T2 sequence (P05177 whole entry): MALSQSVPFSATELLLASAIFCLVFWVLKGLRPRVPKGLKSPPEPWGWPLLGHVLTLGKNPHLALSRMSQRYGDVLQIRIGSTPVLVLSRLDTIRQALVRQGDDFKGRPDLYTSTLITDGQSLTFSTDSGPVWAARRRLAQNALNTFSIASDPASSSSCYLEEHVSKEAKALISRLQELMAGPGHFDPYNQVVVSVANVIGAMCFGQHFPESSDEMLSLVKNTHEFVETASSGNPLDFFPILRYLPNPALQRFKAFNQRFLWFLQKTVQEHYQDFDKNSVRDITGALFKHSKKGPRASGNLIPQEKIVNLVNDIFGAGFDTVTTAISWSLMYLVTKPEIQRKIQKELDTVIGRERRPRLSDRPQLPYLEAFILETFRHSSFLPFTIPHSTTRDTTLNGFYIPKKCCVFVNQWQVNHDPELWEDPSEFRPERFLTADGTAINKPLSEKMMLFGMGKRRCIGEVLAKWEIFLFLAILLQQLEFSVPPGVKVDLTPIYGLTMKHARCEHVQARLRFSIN
Kind of data set: Inhibition of CYP1A2 (unknown origin) at 10 uM relative to control. Format: ADME.

Data set [4] in a line: Solubility of the compound in phosphate buffered saline at pH 7.4. In kind it is physicochemical. Conditions: buffer.
The nature of data set [5]: Stability in mouse liver microsomes. Format: ADME, microsome. The settings on record: read-out: Stability.
The target of another data set is CYP3A4 (Homo sapiens, UniProt P08684). Description: Inhibition of CYP3A4 (unknown origin) at 10 uM relative to control. In kind it is ADME.
CYP3A4, sequence (P08684 whole entry): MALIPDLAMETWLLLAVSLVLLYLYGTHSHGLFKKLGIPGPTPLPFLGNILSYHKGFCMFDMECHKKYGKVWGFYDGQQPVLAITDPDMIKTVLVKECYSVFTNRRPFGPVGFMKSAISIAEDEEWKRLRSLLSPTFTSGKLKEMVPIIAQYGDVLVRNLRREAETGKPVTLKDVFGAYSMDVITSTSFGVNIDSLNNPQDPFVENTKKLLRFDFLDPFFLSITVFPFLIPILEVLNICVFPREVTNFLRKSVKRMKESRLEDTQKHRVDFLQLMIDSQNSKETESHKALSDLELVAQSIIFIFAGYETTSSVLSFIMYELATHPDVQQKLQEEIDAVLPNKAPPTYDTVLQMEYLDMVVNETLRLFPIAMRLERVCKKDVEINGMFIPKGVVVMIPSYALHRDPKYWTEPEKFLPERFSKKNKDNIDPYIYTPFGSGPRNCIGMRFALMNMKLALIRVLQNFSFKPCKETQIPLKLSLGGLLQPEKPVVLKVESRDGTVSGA
Compound in data set [6]: CC(=O)Nc1cccc(Nc2ncc3ccccc3n2)c1
Kind of data set: ATP-competitive inhibition of full length recombinant human N-terminal GST-tagged ASK1 expressed in baculovirus expression system assessed as Km for substrate at 2 uM using MKK6 as substrate by Lineweaver-burk plot analysis (reference value: 6.08 +/- 0.4093 10^-6 M).

Compound in data set [7]: CC(=O)Nc1cccc(Nc2ncc3ccccc3n2)c1
Kind of data set: ATP-competitive inhibition of full length recombinant human N-terminal GST-tagged ASK1 expressed in baculovirus expression system assessed as Km for substrate at 1 uM using MKK6 as substrate by Lineweaver-burk plot analysis (reference value: 6.08 +/- 0.4093 10^-6 M).

Compound in data set [8]: CC(=O)Nc1cccc(Nc2ncc3ccccc3n2)c1
Description: ATP-competitive inhibition of full length recombinant human N-terminal GST-tagged ASK1 expressed in baculovirus expression system assessed as Km for substrate at 0.5 uM using MKK6 as substrate by Lineweaver-burk plot analysis (reference value: 6.08 +/- 0.4093 10^-6 M).

With `Fc1ccc(Nc2ncnc3[nH]cnc23)cc1`, in data set [1], the IC50 (usually the concentration that inhibits the measured activity by half) was > 10 µM.
Still for that read-out and setting: to `Nc1cccc(Nc2ncc3cc(Br)ccc3n2)c1` belongs > 10 µM.
In the case of `Cn1cc(-c2ccc3nc(Nc4ccccc4)ncc3c2)cn1`, in data set [1], the IC50 is > 10 µM.
`c1ccc(Nc2ncc3cc(-c4cn[nH]c4)ccc3n2)cc1`: the IC50 in [1] is > 10 µM.
The same measure, in the same setting: for `Nc1cccc(Nc2ncc3cc(-c4cccc(N)c4)ccc3n2)c1` the value was > 10 µM; for `Clc1cccc(Nc2ncnc3[nH]cnc23)c1`, > 10 µM.
Take `Brc1ccc2nc(Nc3ccccc3)ncc2c1`: the IC50 in data set [1] was > 10 µM.
Turning to `Cn1cc(-c2ccc3nc(Nc4cccc(N(C(=O)C(C)(C)C)c5ccccc5)c4)ncc3c2)cn1`, the IC50 in data set [1] is > 10 µM.
`Cn1cc(-c2ccc3nc(Nc4cccc(N)c4)ncc3c2)cn1`: in data set [1], the IC50 is > 10 µM.
Same read-out and setting: to `CC(C)(C)C(=O)N(c1ccccc1)c1cccc(Nc2ncc3cc(-c4cn[nH]c4)ccc3n2)c1` belongs > 10 µM; to `Fc1ccc(Nc2ncc3cc(Br)ccc3n2)cc1`, > 10 µM; to `CC(=O)Nc1cccc(Nc2ncc3cc(Br)ccc3n2)c1`, > 10 µM.
Same read-out and setting: for `CC(C)(C)C(=O)N(c1ccccc1)c1cccc(Nc2ncc3cc(Br)ccc3n2)c1` the value was > 10 µM.
`CC(=O)Nc1cccc(Nc2ncnc3[nH]cnc23)c1`: the concentration for half-maximal inhibition (IC50) in data set [1] is > 10 µM.
Take `Nc1cccc(-c2ccc3nc(Nc4ccccc4)ncc3c2)c1`: the IC50 in [1] was > 10 µM.
`CN(C)c1cccc(Nc2ncnc3[nH]cnc23)c1`: the IC50 in data set [1] is > 10 µM.
As to `Nc1cccc(Nc2ncc3cc(-c4cn[nH]c4)ccc3n2)c1`, the half-life in data set [2] is 29 min; in data set [3], 3 min; in data set [5] it was 2 min. Also, the inhibition (commonly the percentage by which the read-out fell short of the control) at 10 µM against CYP2C9 stood at 93%; at CYP2D6, 56%; against CYP1A2, 67%; against CYP3A4, 52%. Moreover, the solubility (as a rule, the dissolved amount per volume that the medium holds) in data set [4] is 17 µM (≈ 5.14 µg/mL). The IC50 in [1] was 0.6 µM.
As for `Fc1ccc(Nc2ncc3ccccc3n2)cc1`, the IC50 in data set [1] is > 10 µM.
In the case of `c1ccc(Nc2ncc3ccccc3n2)cc1`, the IC50 in [1] was > 10 µM.
With `CC(=O)Nc1cccc(Nc2ncc3cc(-c4cnn(C)c4)ccc3n2)c1`, in [1], the IC50 was > 10 µM.
Still for that read-out and setting: to `c1ccc(Nc2ncnc3nc[nH]c23)cc1` belongs > 10 µM; to `CN(C)c1cccc(Nc2nccc(NCCOc3ccccc3)n2)c1`, 2 µM.
With `CC(=O)Nc1cccc(Nc2ncc3cc(-c4cccc(N)c4)ccc3n2)c1`, the IC50 in [1] is > 10 µM.
On to `Nc1cccc(Nc2ncc3ccccc3n2)c1`, for which the IC50 in data set [1] was > 10 µM.
As to `CC(=O)Nc1cccc(Nc2ncc3cc(-c4cn[nH]c4)ccc3n2)c1`, the values for the half-life in data set [2], in [3] and in data set [5] were 42 min, 4 min and 2 min, respectively. For the same molecule, the inhibition at 10 µM is 98% on CYP2C9, 52% at CYP2D6, 49% against CYP1A2 and 88% against CYP3A4. For the same molecule, in [4], the solubility worked out at 10 µM (≈ 3.44 µg/mL). In addition, the IC50 in data set [1] is 0.2 µM.
Consider `Clc1cccc(Nc2ncc3ccccc3n2)c1`, for which the IC50 in data set [1] is > 10 µM.

B1: Mitogen-activated protein kinase kinase kinase 5 (Homo sapiens), Q99683 (protein)
chain: T1 sequence (Q99683 whole entry)
On to B1, for which the Km (in general, the concentration of substrate that gives half-maximal velocity) in data set [6] stood at 9.3 µM; in data set [7] it was 7.79 µM; in data set [8] it was 7.01 µM.
